Data taken from US20260001928A1 (CORTERIA PHARMACEUTICALS, priority 2022, published 2026).
*1 amine or outer side, *2 acyl side, *3 side chain or, on linkers, in order; H or OH if unused. Where a SMILES comes first, the peptide text is derived from it. Side-chain parts run from the residue outwards. [ ]: non-standard residue; d: D form. The star is where a group is joined. C20 diacid = O=C(O)CCCCCCCCCCCCCCCCCCC(=O)*; C18 diacid = O=C(O)CCCCCCCCCCCCCCCCC(=O)*; γGlu = O=C(O)[C@H](CCC(=O)[*:2])N[*:1]; Api = NC1(C(=O)O)CCNCC1; Pentanoyl = CCCCC(=O)*; AEEA = NCCOCCOCC(=O)O; Aib = CC(C)(N)C(=O)O

Legend:
human CRF2a receptor = target: T1, human CRF2a receptor (Homo sapiens, UniProt Q13324); assay: Activity at human CRF2a receptor, cAMP functional assay in TeloHEAC cells; format: cell-based; details: TeloHEAC cells stably expressing human CRF2a receptor, relative to urocortin 2 (100 nM = 100%)
T1 construct: expressed in transfected cells; host or cells: TeloHEAC cells
T1 sequence (Q13324 1-411): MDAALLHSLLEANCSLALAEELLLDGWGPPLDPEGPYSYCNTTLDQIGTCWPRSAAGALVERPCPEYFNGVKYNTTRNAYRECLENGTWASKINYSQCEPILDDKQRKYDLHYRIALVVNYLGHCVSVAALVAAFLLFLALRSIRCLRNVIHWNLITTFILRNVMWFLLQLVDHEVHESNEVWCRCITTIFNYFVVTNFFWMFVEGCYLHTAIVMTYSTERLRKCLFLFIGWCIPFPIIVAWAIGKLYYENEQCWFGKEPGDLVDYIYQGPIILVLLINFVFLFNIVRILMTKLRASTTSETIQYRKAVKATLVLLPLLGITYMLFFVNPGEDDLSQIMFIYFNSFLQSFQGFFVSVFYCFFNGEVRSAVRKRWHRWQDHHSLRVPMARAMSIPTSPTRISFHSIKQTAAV
Summary of the method: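 cAMP accumulation was measured by HTRF 665/620 nm ratio after 30 min at 37° C compound exposure (16 twofold dilutions) of CRF2a-expressing TeloHEAC cells, 10000/well, in HEPES-buffered HBSS plus IBMX. Activity was normalised to urocortin 2 at 100 nM (100%), and EC50 was the concentration giving half-maximal activation.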

CFR1R receptor = target: T2, CFR1R receptor (Homo sapiens, UniProt P34998); assay: Activity at anti-target CFR1R receptor, cAMP assay in CRF1R-overexpression CHO-K1 cells; format: cell-based; details: 100% = Sauvagine at 100 nM; for EC50: cAMP
T2 construct: host or cells: CHO-K1 (clone 2)
T2 sequence (P34998 24-415): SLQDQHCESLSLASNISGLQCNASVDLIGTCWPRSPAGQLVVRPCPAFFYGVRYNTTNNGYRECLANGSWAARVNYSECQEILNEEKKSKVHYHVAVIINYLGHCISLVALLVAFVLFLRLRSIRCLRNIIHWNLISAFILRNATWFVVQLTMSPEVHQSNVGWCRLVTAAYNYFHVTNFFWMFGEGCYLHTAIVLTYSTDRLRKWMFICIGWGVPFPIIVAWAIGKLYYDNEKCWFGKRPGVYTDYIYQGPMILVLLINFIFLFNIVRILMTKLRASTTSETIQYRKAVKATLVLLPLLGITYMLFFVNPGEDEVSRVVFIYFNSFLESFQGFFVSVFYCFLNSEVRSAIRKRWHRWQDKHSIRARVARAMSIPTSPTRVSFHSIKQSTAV
Summary of the method: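 Grow clone 2 to near confluence at 37° C. under 5% CO2 in F12 (Hams) with 10% FBS and G418, harvest, and freeze in 10% DMSO. Thaw and plate at 4000 cells/well. Then proceed per the TeloHAEC method, normalising to Sauvagine 100 nM as maximum.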

EC50 (human CRF2a receptor) [nM] | Emax (% I) (CFR1R receptor) | EC50 (CFR1R receptor) [nM] | Structure (SMILES)
1.37 | 5 | > 250 | CCCCC(=O)N[C@H](C(=O)N[C@@H](CC(C)C)C(=O)N[C@@H](CO)C(=O)N[C@@H](CC(C)C)C(=O)N[C@@H](CC(=O)O)C(=O)N[C@@H](C(=O)N1CCC[C@H]1C(=O)N[C@H](C(=O)N[C@@H](CCCCN)C(=O)N[C@@H](CC(C)C)C(=O)N[C@@H](CCCCNC(=O)COCCOCCNC(=O)COCCOCCNC(=O)CC[C@H](NC(=O)CCCCCCCCCCCCCCCCC(=O)O)C(=O)O)C(=O)N[C@@H](CCCCN)C(=O)N[C@H](C(=O)N[C@@H](CC(C)C)C(=O)N[C@@H](CC(C)C)C(=O)N[C@@H](CCC(=O)O)C(=O)N[C@@H](CCC(N)=O)C(=O)N[C@@H](CCC(=O)O)C(=O)N[C@@H](CCCCN)C(=O)N[C@@H](CCC(N)=O)C(=O)N[C@@H](CCCCN)C(=O)N[C@@H](CCCCN)C(=O)N[C@@H](CCC(N)=O)C(=O)N[C@@H](CCCNC(=N)N)C(=O)N[C@@H](CCC(=O)O)C(=O)N[C@@H](CCC(N)=O)C(=O)N[C@@H](C)C(=O)N[C@@H](CCC(=O)O)C(=O)N[C@H](C(=O)N[C@@H](CC(N)=O)C(=O)NC(C)(C)C(=O)N[C@@H](CCC(N)=O)C(=O)N[C@H](C(=O)N[C@@H](CC(C)C)C(=O)N[C@@H](C)C(=O)N[C@@H](CCC(N)=O)C(=O)N[C@H](C(N)=O)C(C)C)[C@@H](C)CC)[C@@H](C)O)[C@@H](C)CC)[C@@H](C)CC)C(C)C)C(C)C [compound 201] (Pentanoyl-VLSLD[dV]PIKLK([AEEA-AEEA-γGlu-C18 diacid])KILLEQEKQKKQREQAETN[Aib]QILAQV-NH2)
1.73 | 8 | > 250 | CCCCC(=O)N[C@H](C(=O)N[C@@H](CC(C)C)C(=O)N[C@@H](CO)C(=O)N[C@@H](CC(C)C)C(=O)N[C@@H](CC(=O)O)C(=O)N[C@@H](C(=O)N1CCC[C@H]1C(=O)N[C@H](C(=O)N[C@@H](CCCCN)C(=O)N[C@@H](CC(C)C)C(=O)N[C@@H](CCCCNC(=O)COCCOCCNC(=O)COCCOCCNC(=O)CC[C@H](NC(=O)CCCCCCCCCCCCCCCCC(=O)O)C(=O)O)C(=O)N[C@@H](CCCCN)C(=O)N[C@H](C(=O)N[C@@H](CC(C)C)C(=O)N[C@@H](CC(C)C)C(=O)N[C@@H](CCC(=O)O)C(=O)N[C@@H](CCC(N)=O)C(=O)N[C@@H](CCC(=O)O)C(=O)N[C@@H](CCCCN)C(=O)N[C@@H](CCC(N)=O)C(=O)N[C@@H](CCCCN)C(=O)NC(C)(C)C(=O)N[C@@H](CCC(N)=O)C(=O)N[C@@H](CCCNC(=N)N)C(=O)N[C@@H](CCC(=O)O)C(=O)N[C@@H](CCC(N)=O)C(=O)N[C@@H](C)C(=O)N[C@@H](CCC(=O)O)C(=O)N[C@H](C(=O)N[C@@H](CC(N)=O)C(=O)NC(C)(C)C(=O)N[C@@H](CCC(N)=O)C(=O)N[C@H](C(=O)N[C@@H](CC(C)C)C(=O)N[C@@H](C)C(=O)N[C@@H](CCC(N)=O)C(=O)N[C@H](C(N)=O)C(C)C)[C@@H](C)CC)[C@@H](C)O)[C@@H](C)CC)[C@@H](C)CC)C(C)C)C(C)C [compound 202] (Pentanoyl-VLSLD[dV]PIKLK([AEEA-AEEA-γGlu-C18 diacid])KILLEQEKQK[Aib]QREQAETN[Aib]QILAQV-NH2)
1.84 | −2 | > 250 | CC[C@H](C)[C@H](NC(C)=O)C(=O)N[C@H](C(=O)N[C@@H](CC(C)C)C(=O)N[C@@H](CO)C(=O)N[C@@H](CC(C)C)C(=O)N[C@@H](CC(=O)O)C(=O)N[C@@H](C(=O)N1CCC[C@H]1C(=O)N[C@H](C(=O)N[C@@H](CCCCN)C(=O)N[C@@H](CC(C)C)C(=O)N[C@@H](CCCCNC(=O)COCCOCCNC(=O)COCCOCCNC(=O)CC[C@H](NC(=O)CC[C@H](NC(=O)CCCCCCCCCCCCCCCCC(=O)O)C(=O)O)C(=O)O)C(=O)N[C@@H](CCCCN)C(=O)N[C@H](C(=O)N[C@@H](CC(C)C)C(=O)N[C@@H](CC(C)C)C(=O)N[C@@H](CCC(=O)O)C(=O)N[C@@H](CCC(N)=O)C(=O)N[C@@H](CCC(=O)O)C(=O)N[C@@H](CCCCN)C(=O)N[C@@H](CCC(N)=O)C(=O)N[C@@H](CCCCN)C(=O)N[C@@H](CCCCN)C(=O)N[C@@H](CCC(N)=O)C(=O)N[C@@H](CCCNC(=N)N)C(=O)N[C@@H](CCC(=O)O)C(=O)N[C@@H](CCC(N)=O)C(=O)N[C@@H](C)C(=O)N[C@@H](CCC(=O)O)C(=O)N[C@H](C(=O)N[C@@H](CC(N)=O)C(=O)NC(C)(C)C(=O)N[C@@H](CCC(N)=O)C(=O)N[C@H](C(=O)N[C@@H](CC(C)C)C(=O)N[C@@H](C)C(=O)N[C@@H](CCC(N)=O)C(=O)N[C@H](C(N)=O)C(C)C)[C@@H](C)CC)[C@@H](C)O)[C@@H](C)CC)[C@@H](C)CC)C(C)C)C(C)C [compound 204] (Ac-IVLSLD[dV]PIKLK([AEEA-AEEA-γGlu-γGlu-C18 diacid])KILLEQEKQKKQREQAETN[Aib]QILAQV-NH2)
1.43 | 1 | > 250 | CC[C@H](C)[C@H](NC(C)=O)C(=O)N[C@H](C(=O)N[C@@H](CC(C)C)C(=O)N[C@@H](CO)C(=O)N[C@@H](CC(C)C)C(=O)N[C@@H](CC(=O)O)C(=O)N[C@@H](C(=O)N1CCC[C@H]1C(=O)N[C@H](C(=O)N[C@@H](CCCCN)C(=O)N[C@@H](CC(C)C)C(=O)N[C@@H](CCCCNC(=O)COCCOCCNC(=O)CC[C@H](NC(=O)CC[C@H](NC(=O)CCCCCCCCCCCCCCCCC(=O)O)C(=O)O)C(=O)O)C(=O)N[C@@H](CCCCN)C(=O)N[C@H](C(=O)N[C@@H](CC(C)C)C(=O)N[C@@H](CC(C)C)C(=O)N[C@@H](CCC(=O)O)C(=O)N[C@@H](CCC(N)=O)C(=O)N[C@@H](CCC(=O)O)C(=O)N[C@@H](CCCCN)C(=O)N[C@@H](CCC(N)=O)C(=O)N[C@@H](CCCCN)C(=O)N[C@@H](CCCCN)C(=O)N[C@@H](CCC(N)=O)C(=O)N[C@@H](CCCNC(=N)N)C(=O)N[C@@H](CCC(=O)O)C(=O)N[C@@H](CCC(N)=O)C(=O)N[C@@H](C)C(=O)N[C@@H](CCC(=O)O)C(=O)N[C@H](C(=O)N[C@@H](CC(N)=O)C(=O)NC(C)(C)C(=O)N[C@@H](CCC(N)=O)C(=O)N[C@H](C(=O)N[C@@H](CC(C)C)C(=O)N[C@@H](C)C(=O)N[C@@H](CCC(N)=O)C(=O)N[C@H](C(N)=O)C(C)C)[C@@H](C)CC)[C@@H](C)O)[C@@H](C)CC)[C@@H](C)CC)C(C)C)C(C)C [compound 205] (Ac-IVLSLD[dV]PIKLK([AEEA-γGlu-γGlu-C18 diacid])KILLEQEKQKKQREQAETN[Aib]QILAQV-NH2)
0.12 | 65 | – | CC[C@H](C)[C@H](NC(C)=O)C(=O)N[C@H](C(=O)N[C@@H](CC(C)C)C(=O)N[C@@H](CO)C(=O)N[C@@H](CC(C)C)C(=O)N[C@@H](CC(=O)O)C(=O)N[C@@H](C(=O)N1CCC[C@H]1C(=O)N[C@H](C(=O)N[C@@H](CCCCN)C(=O)N[C@@H](CC(C)C)C(=O)N[C@@H](CCCCNC(=O)CC[C@H](NC(=O)CCCCCCCCCCCCCCCCCCC(=O)O)C(=O)O)C(=O)N[C@@H](CCCCN)C(=O)N[C@H](C(=O)N[C@@H](CC(C)C)C(=O)N[C@@H](CC(C)C)C(=O)N[C@@H](CCC(=O)O)C(=O)N[C@@H](CCC(N)=O)C(=O)N[C@@H](CCC(=O)O)C(=O)N[C@@H](CCCCN)C(=O)N[C@@H](CCC(N)=O)C(=O)N[C@@H](CCCCN)C(=O)N[C@@H](CCCCN)C(=O)N[C@@H](CCC(N)=O)C(=O)N[C@@H](CCCNC(=N)N)C(=O)N[C@@H](CCC(=O)O)C(=O)N[C@@H](CCC(N)=O)C(=O)N[C@@H](C)C(=O)N[C@@H](CCC(=O)O)C(=O)N[C@H](C(=O)N[C@@H](CC(N)=O)C(=O)NC1(C(=O)N[C@@H](CCC(N)=O)C(=O)N[C@H](C(=O)N[C@@H](CC(C)C)C(=O)N[C@@H](C)C(=O)N[C@@H](CCC(N)=O)C(=O)N[C@H](C(N)=O)C(C)C)[C@@H](C)CC)CCNCC1)[C@@H](C)O)[C@@H](C)CC)[C@@H](C)CC)C(C)C)C(C)C [compound 207] (Ac-IVLSLD[dV]PIKLK([γGlu-C20 diacid])KILLEQEKQKKQREQAETN[Api]QILAQV-NH2)
